Assays:
[1] = test system: yellow nutsedge (Cyperus esculentus); assay: Test C preemergence; type: in vivo; details: Cyperus, pre-emergence, 336 h, scale 0 to 100, read-out: Plant response rating, Nutsedge, Yellow
Outline: (§1)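 Visual ratings (0 none to 100 complete control) were made 13 to 15 days after treatment, relative to controls. Test chemicals, formulated in a non-phytotoxic solvent mixture with surfactant, were applied in the greenhouse preemergence to seeded loam-sand soil or postemergence to plants 2 to 18 cm tall.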

[2] = test system: lambsquarters (Chenopodium album); assay: Test C preemergence; type: in vivo; details: Chenopodium album, pre-emergence, 336 h, scale 0 to 100, read-out: Plant response rating, Lambsquarters
Outline: as §1

[3] = test system: velvetleaf (Abutilon theophrasti); assay: Test C preemergence; type: in vivo; details: Abutilon theophrasti, pre-emergence, scale 0 to 100, read-out: Plant response rating, Velvetleaf
Outline: as §1

[4] = test system: giant foxtail (Setaria faberii); assay: Test C preemergence; type: in vivo; details: Setaria faberi, pre-emergence, 336 h, scale 0 to 100, read-out: Plant response rating, Foxtail, Giant
Outline: as §1

[5] = test system: oilseed rape (Brassica napus); assay: Test C preemergence; type: in vivo; details: Brassica napus, pre-emergence, scale 0 to 100, read-out: Plant response rating, Oilseed Rape
Outline: as §1

[6] = test system: large (Lg) crabgrass (Digitaria sanguinalis); assay: Test C preemergence; type: in vivo; details: Digitaria sanguinalis, pre-emergence, 336 h, scale 0 to 100, read-out: Plant response rating, Crabgrass, Large
Outline: as §1

[7] = test system: winter wheat (Triticum aestivum); assay: Test C preemergence; type: in vivo; details: Triticum aestivum, pre-emergence, 336 h, scale 0 to 100, read-out: Plant response rating, Wheat
Outline: as §1

corn (Zea mays) = assay: Test C preemergence; type: in vivo; details: Zea mays, pre-emergence, 336 h, scale 0 to 100
Outline: as §1

[8] = test system: barnyardgrass (Echinochloa crus-galli); assay: Test C preemergence; type: in vivo; details: Echinochloa crus-galli, pre-emergence, read-out: Plant response rating, Barnyardgrass
Outline: as §1

[9] = test system: blackgrass (Alopecurus myosuroides); assay: Test C preemergence; type: in vivo; details: Alopecurus myosuroides, pre-emergence, 336 h, scale 0 to 100, read-out: Plant response rating, Blackgrass
Outline: as §1

[10] = test system: ragweed (common ragweed, Ambrosia elatior); assay: Test C preemergence; type: in vivo; details: Ambrosia artemisiifolia, pre-emergence, 336 h, scale 0 to 100, read-out: Plant response rating, Ragweed
Outline: as §1

[11] = test system: morningglory (Ipomoea coccinea); assay: Test C preemergence; type: in vivo; details: Ipomoea, pre-emergence, 336 h, scale 0 to 100, read-out: Plant response rating, Morningglory
Outline: as §1

[12] = test system: galium (catchweed bedstraw, Galium aparine); assay: Test C preemergence; type: in vivo; details: Galium, pre-emergence, 336 h, scale 0 to 100, read-out: Plant response rating, Galium
Outline: as §1

[13] = test system: pigweed (Amaranthus retroflexus); assay: Test C preemergence; type: in vivo; details: Amaranthus retroflexus, pre-emergence, 336 h, scale 0 to 100, read-out: Plant response rating, Pigweed
Outline: as §1

soybean (Glycine max) = assay: Test C preemergence; type: in vivo; details: Glycine max, pre-emergence, scale 0 to 100, read-out: Plant response rating, Soybean
Outline: as §1

[14] = test system: johnsongrass (Sorghum halepense); assay: Test C preemergence; type: in vivo; details: Sorghum halepense, pre-emergence, 336 h, scale 0 to 100, read-out: Plant response rating, Johnsongrass
Outline: as §1

[15] = test system: velvetleaf (Abutilon theophrasti); assay: Test C postemergence; type: in vivo; details: Abutilon theophrasti, post-emergence, Postemergence, scale 0 to 100, read-out: Plant response rating, Velvetleaf
Outline: as §1

[16] = test system: large (Lg) crabgrass (Digitaria sanguinalis); assay: Test C postemergence; type: in vivo; details: Digitaria sanguinalis, post-emergence, 336 h, Postemergence, scale 0 to 100, read-out: Plant response rating, Crabgrass, Large
Outline: as §1

[17] = test system: winter wheat (Triticum aestivum); assay: Test C postemergence; type: in vivo; details: Triticum aestivum, post-emergence, 336 h, Postemergence, scale 0 to 100, read-out: Plant response rating, Wheat
Outline: as §1

kochia (Kochia scoparia) = assay: Test C postemergence; type: in vivo; details: Bassia scoparia, post-emergence, Postemergence, scale 0 to 100, read-out: Plant response rating, Kochia
Outline: as §1

[18] = test system: morningglory (Ipomoea coccinea); assay: Test C postemergence; type: in vivo; details: Ipomoea, post-emergence, 336 h, Postemergence, scale 0 to 100, read-out: Plant response rating, Morningglory
Outline: as §1

[19] = test system: galium (catchweed bedstraw, Galium aparine); assay: Test C postemergence; type: in vivo; details: Galium, post-emergence, 336 h, Postemergence, scale 0 to 100, read-out: Plant response rating, Galium
Outline: as §1

**Q.** Which results are given for `N#Cc1cccc(Oc2ncc(Cl)cn2)c1Oc1ncc(C(F)(F)F)cn1` [Compound 38, 3-[(5-chloro-2-pyrimidinyl)oxy]-2-[[5-(trifluoromethyl)-2-pyrimidinyl]oxy]-benzonitrile]?
**A.** pest or weed control at 31 g/ha ([1]; 31 g ai/ha, preemergence): 20%; pest or weed control at 62 g/ha ([1]; 62 g ai/ha, preemergence): 70%; pest or weed control at 125 g/ha ([1]; 125 g ai/ha, preemergence): 85%; pest or weed control at 16 g/ha ([1]; Preemergence, 16 g ai/ha): 0%; pest or weed control at 31 g/ha ([2]; 31 g ai/ha, preemergence): 90%; pest or weed control at 62 g/ha ([2]; 62 g ai/ha, preemergence): 95%; pest or weed control at 125 g/ha ([2]; 125 g ai/ha, preemergence): 98%; pest or weed control at 16 g/ha ([2]; Preemergence, 16 g ai/ha): 85%; pest or weed control at 31 g/ha ([3]; 31 g ai/ha, preemergence): 90%; pest or weed control at 62 g/ha ([3]; 62 g ai/ha, preemergence): 98%; pest or weed control at 125 g/ha ([3]; 125 g ai/ha, preemergence): 100%; pest or weed control at 16 g/ha ([3]; Preemergence, 16 g ai/ha): 45%; pest or weed control at 31 g/ha ([4]; 31 g ai/ha, preemergence): 95%; pest or weed control at 62 g/ha ([4]; 62 g ai/ha, preemergence): 100%; pest or weed control at 125 g/ha ([4]; 125 g ai/ha, preemergence): 100%; pest or weed control at 16 g/ha ([4]; Preemergence, 16 g ai/ha): 85%; plant injury at 31 g/ha ([5]; 31 g ai/ha, preemergence): 100%; plant injury at 62 g/ha ([5]; 62 g ai/ha, preemergence): 100%; plant injury at 125 g/ha ([5]; 125 g ai/ha, preemergence): 100%; plant injury at 16 g/ha ([5]; Preemergence, 16 g ai/ha): 90%; pest or weed control at 31 g/ha ([6]; 31 g ai/ha, preemergence): 100%; pest or weed control at 62 g/ha ([6]; 62 g ai/ha, preemergence): 100%; pest or weed control at 125 g/ha ([6]; 125 g ai/ha, preemergence): 100%; pest or weed control at 16 g/ha ([6]; Preemergence, 16 g ai/ha): 100%; plant injury at 31 g/ha ([7]; 31 g ai/ha, preemergence): 0%; plant injury at 62 g/ha ([7]; 62 g ai/ha, preemergence): 15%; plant injury at 125 g/ha ([7]; 125 g ai/ha, preemergence): 35%; plant injury at 16 g/ha ([7]; Preemergence, 16 g ai/ha): 0%; Corn plant response rating (crop injury, 0 = no effect, 100 = complete kill) at 31 g/ha (corn (Zea mays); 31 g ai/ha, preemergence): 30%; Corn plant response rating (crop injury, 0 = no effect, 100 = complete kill) at 62 g/ha (corn (Zea mays); 62 g ai/ha, preemergence): 45%; Corn plant response rating (crop injury, 0 = no effect, 100 = complete kill) at 125 g/ha (corn (Zea mays); 125 g ai/ha, preemergence): 65%; Corn plant response rating (crop injury, 0 = no effect, 100 = complete kill) at 16 g/ha (corn (Zea mays); Preemergence, 16 g ai/ha): 10%; pest or weed control at 31 g/ha ([8]; 31 g ai/ha, preemergence, scale 0 to 100): 85%; pest or weed control at 62 g/ha ([8]; 62 g ai/ha, preemergence, scale 0 to 100): 100%; pest or weed control at 125 g/ha ([8]; 125 g ai/ha, preemergence, scale 0 to 100): 100%; pest or weed control at 16 g/ha ([8]; Preemergence, 16 g ai/ha, scale 0 to 100 (0 no effect, 100 complete control)): 50%; pest or weed control at 31 g/ha ([9]; 31 g ai/ha, preemergence): 35%; pest or weed control at 62 g/ha ([9]; 62 g ai/ha, preemergence): 50%; pest or weed control at 125 g/ha ([9]; 125 g ai/ha, preemergence): 90%; pest or weed control at 16 g/ha ([9]; Preemergence, 16 g ai/ha): 0%; pest or weed control at 31 g/ha ([10]; 31 g ai/ha, preemergence): 25%; pest or weed control at 62 g/ha ([10]; 62 g ai/ha, preemergence): 75%; pest or weed control at 125 g/ha ([10]; 125 g ai/ha, preemergence): 90%; pest or weed control at 16 g/ha ([10]; Preemergence, 16 g ai/ha): 0%; pest or weed control at 31 g/ha ([11]; 31 g ai/ha, preemergence): 80%; pest or weed control at 62 g/ha ([11]; 62 g ai/ha, preemergence): 95%; pest or weed control at 125 g/ha ([11]; 125 g ai/ha, preemergence): 100%; pest or weed control at 16 g/ha ([11]; Preemergence, 16 g ai/ha): 40%; pest or weed control at 31 g/ha ([12]; 31 g ai/ha, preemergence): 90%; pest or weed control at 62 g/ha ([12]; 62 g ai/ha, preemergence): 100%; pest or weed control at 125 g/ha ([12]; 125 g ai/ha, preemergence): 100%; pest or weed control at 16 g/ha ([12]; Preemergence, 16 g ai/ha): 80%; pest or weed control at 31 g/ha ([13]; 31 g ai/ha, preemergence): 100%; pest or weed control at 62 g/ha ([13]; 62 g ai/ha, preemergence): 100%; pest or weed control at 125 g/ha ([13]; 125 g ai/ha, preemergence): 100%; pest or weed control at 16 g/ha ([13]; Preemergence, 16 g ai/ha): 100%; plant injury at 31 g/ha (soybean (Glycine max); 31 g ai/ha, preemergence): 55%; plant injury at 62 g/ha (soybean (Glycine max); 62 g ai/ha, preemergence): 60%; plant injury at 125 g/ha (soybean (Glycine max); 125 g ai/ha, preemergence): 90%; plant injury at 16 g/ha (soybean (Glycine max); Preemergence, 16 g ai/ha): 20%; pest or weed control at 31 g/ha ([14]; 31 g ai/ha, preemergence): 85%; pest or weed control at 62 g/ha ([14]; 62 g ai/ha, preemergence): 85%; pest or weed control at 125 g/ha ([14]; 125 g ai/ha, preemergence): 100%; pest or weed control at 16 g/ha ([14]; Preemergence, 16 g ai/ha): 45%; pest or weed control at 31 g/ha ([15]; 31 g ai/ha): 65%; pest or weed control at 62 g/ha ([15]; 62 g ai/ha): 55%; pest or weed control at 125 g/ha ([15]; 125 g ai/ha): 60%; pest or weed control at 16 g/ha ([16]; 16 g ai/ha): 5%; pest or weed control at 31 g/ha ([16]; 31 g ai/ha): 10%; pest or weed control at 62 g/ha ([16]; 62 g ai/ha): 10%; pest or weed control at 125 g/ha ([16]; 125 g ai/ha): 30%; plant injury at 31 g/ha ([17]; 31 g ai/ha): 0%; plant injury at 62 g/ha ([17]; 62 g ai/ha): 0%; plant injury at 125 g/ha ([17]; 125 g ai/ha): 0%; pest or weed control at 16 g/ha (kochia (Kochia scoparia); 16 g ai/ha): 90%; pest or weed control at 31 g/ha (kochia (Kochia scoparia); 31 g ai/ha): 90%; pest or weed control at 62 g/ha (kochia (Kochia scoparia); 62 g ai/ha): 90%; pest or weed control at 125 g/ha (kochia (Kochia scoparia); 125 g ai/ha): 95%; pest or weed control at 31 g/ha ([18]; 31 g ai/ha): 85%; pest or weed control at 62 g/ha ([18]; 62 g ai/ha): 85%; pest or weed control at 125 g/ha ([18]; 125 g ai/ha): 90%; pest or weed control at 16 g/ha ([19]; 16 g ai/ha): 70%; pest or weed control at 31 g/ha ([19]; 31 g ai/ha): 85%; pest or weed control at 62 g/ha ([19]; 62 g ai/ha): 90%; pest or weed control at 125 g/ha ([19]; 125 g ai/ha): 90%; melting point: 101 to 103 °C
